# Source: US6359015B1, “Method for antagonizing inhibition effects of alcohol on cell adhesion” (The United States of America as represented by the …, priority 2000, dated 2002)
# Key:
# [1] = test system: BMP-7 treated NG108-15 neuroblastoma×glioma cells; test: Cell-cell adhesion (short-term aggregation) assay in BMP-7 treated NG108-15 cells; format: cell-based, rat and mouse; conditions: both cellular systems (NG108-15 + BMP-7 and L1-expressing NIH/3T3)
# Method: NIH/3T3 cells were cultured in Dulbecco's minimum Eagle medium (DMEM) (Life Technologies, Gaithersburg, Md.) supplemented with 10% normal calf serum (Intergen, Purchase, N.Y.) and 400 μg/ml G418 (Life Technologies). NG108-15 neuroblastoma×glioma cells (passages 21 to 30) were plated in serum-free, defined medium (Reference 16). At the start of the morphogenetic and cell adhesion assays, serum-free medium containing BMP-7 (Creative BioMolecules, Hopkinton, Ma.) (1-40 ng/ml, final) was added daily to the NG108-15 cells. Both cell lines were cultured at 37° C., in an atmosphere of 90% air and 10% CO2. Three NIH/3T3 subclones were utilized in these studies: 2B2-L1, 2A2-L1 and Vec-1A5. The 2B2-L1 and 2A2-L1 cell lines are subclones derived from a stable transfection of NIH/3T3 cells with the human L1 cDNA, and Vec-1A5 is a subclone from a transfection with the empty expression vector (Reference 12).
# Cells were cultured and cell adhesion assays were performed in the absence and presence of the alcohols listed below in Table 1. The concentrations of alcohols used in the adhesion assays were calculated to produce membrane concentrations equivalent to 50-100 mM ethanol. Membrane/buffer partition coefficients (Pm/b) were obtained or were calculated from published octanol/water partition coefficients (Reference 15). Molar volumes were obtained from published sources (References 15) or were calculated from molecular weights and densities at 20° C.
# Cell-cell adhesion was measured using a modified short-term aggregation assay of sub-confluent cells (Reference 12). Cells were detached by gentle agitation, mechanically dissociated to obtain a single-cell suspension, and diluted in PBS supplemented with 0.1 mg/ml DNase to 350,000 cells/ml for the NIH/3T3 cells, and 250,000 cells/ml for the NG108-15 cells. One ml of the cell suspension was added per well (4.5 cm^2) of a 12-well plate. After addition of the alcohols, the cells were gently mixed and mechanically shaken for 30 minutes at room temperature on an orbital shaker set at 60 to 80 rpm. Cells were viewed at a final magnification of 200×, and each well was scored for single and adherent cells in five or six microscopic fields of view. We counted approximately 100 cells per field of view and 600 cells per well. The percentage of adherent cells was calculated for each microscopic field of view and averaged. To calculate the magnitude of ethanol inhibition, we subtracted the values for cell adhesion with the Vec-1A5 cells from those of the 2B2-L1 or 2A2-L1 cell lines. Similarly, the values for cell adhesion in NG108-15 cells cultured in serum-free medium were subtracted from those of NG108-15 cells treated with BMP-7.
# We tested the effects of a series of alcohols on cell-cell adhesion in two well-characterized model systems. NG108-15 cells were incubated for 48 hours in a serum-free medium supplemented with 10-20 ng/ml BMP-7 to induce L1 and N-CAM gene expression (Reference 10). Parallel experiments were performed using two ethanol-sensitive NIH/3T3 cell lines transfected with human L1 (2B2-L1 and 2A2-L1) (Reference 12) and a NIH/3T3 cell line transfected with the empty expression vector (1A5-V).
# [2] = test system: NG108-15 cells; test: BMP-7 morphogenesis (cell clusters) in NG108-15 cells; format: cell-based, rat and mouse; conditions: 50 mM ethanol, 3 days, 0.1-40 ng/ml BMP-7
# Method: NG108-15 cells were plated from suspensions of single cells at a density of 50,000 cells/well in poly-D-lysine-coated, 6-well plated containing serum-free medium in the absence or presence of BMP-7, as described (References 17-18). […] Control cultures were treated similarly. The media for all cells was replaced daily following the addition of ethanol. […] A cell cluster was defined as a group of three or more cells that adhered to each other along at least one quarter of their cell bodies (Reference 19). The percentage of cells in clusters was calculated by dividing the number of cells present in clusters by the total number of cells (150 to 200) in each field. Values obtained for each field of a treatment group were then averaged.
# Treatment with BMP-7 for 48 hours causes NG108-15 cells to grow in clusters of adherent cells (BMP-7 morphogenesis), rather than as predominantly single cells.
# The percentage of cells in clusters of three or more cells was scored from two separate fields viewed under 200×magnification.
# [3] = published or calculated from molecular weight and density at 20° C.; cited from earlier work
# [4] = test system: Myeloma cells transfected with L1; conditions: References 14 and 21; cited from earlier work
# [5] = test system: insect SF9 cells transfected with L1; conditions: References 14 and 21; cited from earlier work
structure (smiles),measurement,setting,value
CCO [ethanol],Inhibition of cell-cell adhesion (in words),[1],maximally inhibited
same,Inhibition of BMP-7 morphogenesis (percentage of cell clusters),[2],inhibited significantly
same,Vm molar volume,[3],58 mL/mol
same,Sensitivity of L1-transfected myeloma cells to ethanol,[4],insensitive
same,Sensitivity of L1-transfected insect SF9 cells to ethanol,[5],insensitive
